The values below come from EP0361954A2, “CRF Analogs” (THE SALK INSTITUTE FOR BIOLOGICAL STUDIES, priority 1988, dated 1990).

Non-standard residues stand in square brackets, D forms with d. Nle = CCCC[C@H](N)C(=O)O; Nva = CCC[C@H](N)C(=O)O

For experiment [1], the system named is cultured rat pituitary cells. The experiment is described as follows: Secretion of ACTH and β-endorphin by cultured rat pituitary cells (procedure of Endocrinology, 91, 562 (1972)). The class given is cell-based. The note with it: for stimulation of the secretion of ACTH and β-END-LI: testing by the general procedure of Example III; for EC50: stimulation of secretion of ACTH and β-endorphin, cultured rat pituitary cells, read-out: Half-maximal responses (concentration of the peptide). On the procedure:
(§1) The synthetic peptide [D-Glu²⁰]-oCRF is examined for its effects on the secretion of ACTH and β-endorphin in vitro and was also in vivo. The potency of synthetic [D-Glu²⁰]-oCRF to stimulate the secretion of ACTH and β-endorphin by cultured rat pituitary cells is measured using the procedure as generally set forth in Endocrinology, 91, 562 (1972) and compared against synthetic oCRF. […] In vivo testing is carried out using the general procedure set forth in C.

The nature of experiment [2]: In vivo testing (general procedure of C. Rivier et al., Science, 218, 377 (1982)): duration of potency and blood pressure. Conditions: for lowering of blood pressure: general procedure of Example III. How it is done: as §1

For “H-SQ[dY]PPISLDLTFHLLRE[Nle]L[dE][Nva]AK[dA]EQEAEQAALNRLLLEEA-NH2”, the “stimulation of the secretion of ACTH and β-END-LI” value (from here on “stimulation”) in experiment [1] is “stimulates the secretion of ACTH and β-END-LI”. Moreover, the “lowering of blood pressure” value in experiment [2] is given as “very significant lowering of blood pressure”.
With “For-Ser-GlU-GlU-Pro-Pro-Ile-Ser-Leu-Asp-Leu-Thr-D-Phe-His-Leu-Leu-Arg-Glu-Val-Leu-Glu-Nle-Ala-Arg-Ala-Glu-Gln-Leu-Ala-Gln-Gln-Ala-D-His-Ser-Asn-Arg-Lys-Leu-Nle-Glu-Ile-Ile-NH₂”, the “stimulation” value in experiment [1] was “stimulates the secretion of ACTH and β-END-LI”. Besides, the “lowering of blood pressure” value in experiment [2] is “very significant lowering of blood pressure”.
As for “H-SQEPPISLDLT[dF]HLLREML[dE]RAKAEQEAEQAALNRLLLEEA-NH2 [[D-Phe¹², D-Glu²⁰, Arg²¹]-AHC]”, the “stimulation” value in experiment [1] is “stimulates the secretion of ACTH and β-END-LI”. For the same compound, in experiment [2], the “lowering of blood pressure” value is given as “very significant lowering of blood pressure”.
On to “H-SQEPPISLDLT[dF]HLLRE[Nle]LE[Nle]AK[dA]EQEAEQAALNRLLLEEA-NH2 [[D-Phe¹², Nle^18,21, D-Ala²⁴]-AHC]”, for which the “stimulation” value in experiment [1] was “stimulates the secretion of ACTH and β-END-LI”. The “lowering of blood pressure” value in experiment [2] is reported as “very significant lowering of blood pressure”.
In the case of “H-SQE[dP]PISLDLT[dF]HLLRE[Nle]LE[Nle]AKAEQEAEQAAINRNLLEEA-NH2”, the “stimulation” value in experiment [1] is “stimulates the secretion of ACTH and β-END-LI”. In addition, the “lowering of blood pressure” value in experiment [2] is “very significant lowering of blood pressure”.
On to “H-SQEPPISLDLT[dF]ELLREMLEIAKAEQEAEQAALNRKYLEEV-NH2”, for which the “stimulation” value in experiment [1] was “stimulates the secretion of ACTH and β-END-LI”. Moreover, the “lowering of blood pressure” value in experiment [2] is on record as “very significant lowering of blood pressure”.
Turning to `CCCC[C@H](NC(=O)[C@@H](CCC(=O)O)NC(=O)[C@H](CC(C)C)NC(=O)[C@@H](NC(=O)[C@H](CCC(=O)O)NC(=O)[C@H](CCCNC(=N)N)NC(=O)[C@H](CC(C)C)NC(=O)[C@H](CC(C)C)NC(=O)[C@H](Cc1c[nH]cn1)NC(=O)[C@H](Cc1ccccc1)NC(=O)[C@@H](NC(=O)[C@H](CC(C)C)NC(=O)[C@H](CC(=O)O)NC(=O)[C@H](CC(C)C)NC(=O)[C@H](CO)NC(=O)[C@@H](NC(=O)[C@@H]1CCCN1C(=O)[C@@H]1CCCN1C(=O)[C@H](CCC(=O)O)NC(=O)[C@H](CCC(N)=O)NC(=O)[C@@H](N)CO)[C@@H](C)CC)[C@@H](C)O)C(C)C)C(=O)N[C@H](C(=O)N[C@@H](CCCCN)C(=O)N[C@@H](C)C(=O)N[C@@H](CC(=O)O)C(=O)N[C@@H](CCC(N)=O)C(=O)N[C@@H](CC(C)C)C(=O)N[C@@H](C)C(=O)N[C@@H](CCC(N)=O)C(=O)N[C@@H](CCC(N)=O)C(=O)N[C@@H](C)C(=O)N[C@H](Cc1c[nH]cn1)C(=O)N[C@@H](CO)C(=O)N[C@@H](CC(N)=O)C(=O)N[C@@H](CCCNC(=N)N)C(=O)N[C@@H](CCCCN)C(=O)N[C@@H](CC(C)C)C(=O)N[C@@H](CC(C)C)C(=O)N[C@@H](CC(=O)O)C(=O)N[C@H](C(=O)N[C@@H](C)C(N)=O)[C@@H](C)CC)[C@@H](C)O` [[D-Glu²⁰, Nle²¹, D-His³²]-oCRF], the “lowering of blood pressure” value in experiment [2] is on record as “very significant lowering of blood pressure”.
As for “H-Ser-Glu-Glu-pro-pro-lle-Ser-Leu-Asp-Leu-Thr-D-Phe-Glu-Leu-Leu-Arg-Glu-Nle-Leu-Glu-Met-Glu-Orn-Ala-Glu-Lys-Glu-Ala-Glu-Gln-Ala-Ala-Leu-Asn-Arg-Leu-Leu-Leu-Glu-Glu-Ala-NH₂ [[Glu^2,13,22 D-Phe¹², Nle¹⁸, Orn²³]-AHC]”, the “stimulation” value in experiment [1] is “stimulates the secretion of ACTH and β-END-LI”. Also, in experiment [2], the “lowering of blood pressure” value is “very significant lowering of blood pressure”.
As for “H-SQEPPISLDLTFHLLREVL[dE][Nle]TK[dA]DQLAQQAHSNRKL[Nle]DIA-NH2 [[D-Glu²⁰, D-Ala²⁴, Nle^21,38]-oCRF]”, the “lowering of blood pressure” value in experiment [2] is reported as “very significant lowering of blood pressure”.
For the compound `CC[C@H](C)[C@H](NC(=O)[C@H](CC(=O)O)NC(=O)[C@H](CC(C)C)NC(=O)[C@H](CC(C)C)NC(=O)[C@H](CCCCN)NC(=O)[C@H](CCCNC(=N)N)NC(=O)[C@H](CC(N)=O)NC(=O)[C@H](CO)NC(=O)[C@H](Cc1c[nH]cn1)NC(=O)[C@H](C)NC(=O)[C@H](CCC(N)=O)NC(=O)[C@H](CCC(N)=O)NC(=O)[C@H](C)NC(=O)[C@H](CC(C)C)NC(=O)[C@H](CCC(N)=O)NC(=O)[C@H](CC(=O)O)NC(=O)[C@H](C)NC(=O)[C@H](CCCCN)NC(=O)[C@@H](NC(=O)[C@H](CCSC)NC(=O)[C@H](CCC(=O)O)NC(=O)[C@H](CC(C)C)NC(=O)[C@@H](NC(=O)[C@H](CCC(=O)O)NC(=O)[C@H](CCCNC(=N)N)NC(=O)[C@H](CC(C)C)NC(=O)[C@H](CC(C)C)NC(=O)[C@H](Cc1c[nH]cn1)NC(=O)[C@H](Cc1ccccc1)NC(=O)[C@@H](NC(=O)[C@H](CC(C)C)NC(=O)[C@H](CC(=O)O)NC(=O)[C@H](CC(C)C)NC(=O)[C@H](CO)NC(=O)[C@@H](NC(=O)[C@@H]1CCCN1C(=O)[C@@H]1CCCN1C(=O)[C@H](CCC(=O)O)NC(=O)[C@H](CCC(N)=O)NC(=O)[C@@H](N)CO)[C@@H](C)CC)[C@@H](C)O)C(C)C)[C@@H](C)O)C(=O)N[C@@H](C)C(N)=O` [oCRF, reference compound], in experiment [1], the EC50 was approximately 0.25 nM.
Regarding “H-GlU-Pro-Pro-Ile-Ser-Leu-Asp-Leu-Thr-D-Phe-His-Leu-Leu-Arg-Glu-Val-Leu-D-GlU-Met-Ala-Arg-Ala-Glu-Gln-Leu-Ala-Gln-Gln-Ala-His-Ser-Asn-Arg-Lys-Leu-Met-Glu-Ile-Ile-NH₂ [[D-Phe¹², D-Glu²⁰]-rCRF(3-41)]”, the “stimulation” value in experiment [1] is “stimulates the secretion of ACTH and β-END-LI”. Moreover, in experiment [2], the “lowering of blood pressure” value is “very significant lowering of blood pressure”.
As for “H-SQEPPISLDLTFHLLRE[Nle]L[dE][Nle]AKAEQEAEQA[dH]LNRLLLEEA-NH2 [[Nle^18,21, D-Glu²⁰, D-His³²]-AHC]”, the “stimulation” value in experiment [1] was “stimulates the secretion of ACTH and β-END-LI”. Further, the “lowering of blood pressure” value in experiment [2] is listed as “very significant lowering of blood pressure”.
On to `CC[C@H](C)[C@H](NC(=O)[C@H](CC(=O)O)NC(=O)[C@H](CC(C)C)NC(=O)[C@H](CC(C)C)NC(=O)[C@H](CCCCN)NC(=O)[C@H](CCCNC(=N)N)NC(=O)[C@H](CC(N)=O)NC(=O)[C@H](CO)NC(=O)[C@H](Cc1c[nH]cn1)NC(=O)[C@H](C)NC(=O)[C@H](CCC(N)=O)NC(=O)[C@H](CCC(N)=O)NC(=O)[C@H](C)NC(=O)[C@H](CC(C)C)NC(=O)[C@H](CCC(N)=O)NC(=O)[C@H](CC(=O)O)NC(=O)[C@H](C)NC(=O)[C@H](CCCCN)NC(=O)[C@@H](NC(=O)[C@H](CCSC)NC(=O)[C@@H](CCC(=O)O)NC(=O)[C@H](CC(C)C)NC(=O)[C@@H](NC(=O)[C@H](CCC(=O)O)NC(=O)[C@H](CCCNC(=N)N)NC(=O)[C@H](CC(C)C)NC(=O)[C@H](CC(C)C)NC(=O)[C@H](Cc1c[nH]cn1)NC(=O)[C@H](Cc1ccccc1)NC(=O)[C@@H](NC(=O)[C@H](CC(C)C)NC(=O)[C@H](CC(=O)O)NC(=O)[C@H](CC(C)C)NC(=O)[C@H](CO)NC(=O)[C@@H](NC(=O)[C@@H]1CCCN1C(=O)[C@@H]1CCCN1C(=O)[C@H](CCC(=O)O)NC(=O)[C@H](CCC(N)=O)NC(=O)[C@@H](N)CO)[C@@H](C)CC)[C@@H](C)O)C(C)C)[C@@H](C)O)C(=O)N[C@@H](C)C(N)=O` [[D-Glu²⁰]-oCRF], for which the “potency compared with the native hormone” value in experiment [1] (in vitro, compared against synthetic oCRF / native peptides) is given as “about twice as potent as the native hormone”. For the same compound, the “secretory response to maximal concentrations” value in experiment [1] (maximal (1-5 nM) concentrations) is given as “at a plateau level”. Also, the EC50 in experiment [1] was approximately 0.17 nM. For the same compound, in experiment [2], the duration of potency result is listed as “longer duration of potency” and the “lowering of blood pressure” value is “significant lowering of blood pressure”.
Regarding “H-SQEPPISLDLTFHLREVL[dE][Nle]TKADQLAQQAHSNRKLLDIA-NH2 [[D-Glu²⁰, Nle²¹]-oCRF]”, the “stimulation” value in experiment [1] was “stimulates the secretion of ACTH and β-END-LI”. The “lowering of blood pressure” value in experiment [2] is reported as “very significant lowering of blood pressure”.
As for `CC[C@H](C)[C@H](NC(=O)[C@@H](NC(=O)[C@H](CC(=O)O)NC(=O)[C@H](CC(C)C)NC(=O)[C@H](CC(C)C)NC(=O)[C@H](CC(C)C)NC(=O)[C@H](CCCNC(=N)N)NC(=O)[C@H](CC(N)=O)NC(=O)[C@H](CC(N)=O)NC(=O)[C@H](C)NC(=O)[C@H](C)NC(=O)[C@H](CCC(N)=O)NC(=O)[C@H](CCC(=O)O)NC(=O)[C@H](CCCCN)NC(=O)[C@H](CCC(=O)O)NC(=O)[C@H](CCCCN)NC(=O)[C@H](CCC(=O)O)NC(=O)[C@H](CCC(N)=O)NC(=O)[C@H](CCCCN)NC(=O)[C@H](CCCNC(=N)N)NC(=O)[C@H](C)NC(=O)[C@@H](CCC(=O)O)NC(=O)[C@@H](NC(=O)[C@H](CCSC)NC(=O)[C@H](CCCCN)NC(=O)[C@H](CCCNC(=N)N)NC(=O)[C@H](CC(C)C)NC(=O)[C@H](CC(C)C)NC(=O)[C@H](CCC(=O)O)NC(=O)[C@@H](Cc1ccccc1)NC(=O)[C@H](CO)NC(=O)[C@H](CC(C)C)NC(=O)[C@H](CC(=O)O)NC(=O)[C@@H](NC(=O)[C@H](CO)NC(=O)[C@@H](NC(=O)[C@@H]1CCCN1C(=O)[C@@H]1CCCN1C(=O)CNC(=O)[C@@H]1CCC(=O)N1)[C@@H](C)CC)[C@@H](C)CC)[C@@H](C)CC)[C@@H](C)CC)C(N)=O`, in experiment [1], the “stimulation” value is “stimulates the secretion of ACTH and β-END-LI”. The “lowering of blood pressure” value in experiment [2] is on record as “very significant lowering of blood pressure”.
Take “Acr-Glu-Glu-Pro-Pro-Ile-Ser-Leu-Asp-Leu-Thr-D-Phe-His-Leu-Leu-Arg-Glu-Val-Leu-Glu-Nle-Ala-Arg-Ala-Glu-Gln-Leu-Ala-Gln-Gln-Ala-D-His-Ser-Asn-Arg-Lys-Leu-NIe-Glu-Ile-Ile-NH₂”: the “stimulation” value in experiment [1] was “stimulates the secretion of ACTH and β-END-LI”. Further, the “lowering of blood pressure” value in experiment [2] is “very significant lowering of blood pressure”.
